Experimental data: PubChem BioAssay AID1845206 (Molecular Pharmacology Branch, DTP, NCI, 2023)

System: NCI-H1618 multicellular tumor spheroid viability
Assay: Anticancer human tumor NCI-H1618 cell line growth inhibition;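 further: spheroids exposed to agents for 7 days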
Conditions: for IC50: curve of first compound; for viability, T/C: stronger effect = lower value
Excerpt: Multicellular complex tumor spheroid response to DNA repair inhibitors in combination with DNA-damaging drugs
This study explores the anticancer activities of DNA-damaging drugs and inhibitors of DNA damage repair, both as single agents and in combinations. Complex tumor spheroids comprised of malignant cells, endothelial cells and mesenchymal stem cells served as an in vitro model for human solid tumors. This model system incorporates physiologically relevant features and patient-derived or established malignant cell lines with clinically relevant genetic alterations from many tumor types. Twenty-six patient-derived or established malignant cell lines were evaluated representing sarcoma, melanoma, small cell lung cancer (SCLC), non-small cell lung cancer (NSCLC), as well as bladder, ovarian and pancreatic cancers. The concentration ranges selected for each drug and investigational agent were based upon clinically achievable concentrations if the clinical Cmax of the agent was known.
Compounds. The drugs and compounds olaparib (NSC753686), talazoparib (NSC767125), berzosertib (NSC777718), elimusertib (NSC800525), nedisertib (NSC802822), VX-984 (NSC792969), AZD-1390 (NSC803789), temozolomide (NSC362856), topotecan (NSC609699), trabectedin (NSC813783), staurosporine (NSC755774), and gemcitabine (NSC613327) were obtained from the National Cancer Institute (NCI) Developmental Therapeutics Program Chemical Repository. The FDA-approved anticancer drug set is available from the Developmental Therapeutics Program at https://dtp.cancer.gov/organization/dscb/obtaining/available_plates.htm. […] The stock solutions were prepared in dimethyl sulfoxide (DMSO, Sigma-Aldrich, St. Louis, MO, cat. D2650) at 400-fold the tested concentration and stored at -70 degrees C. Prior to their use, the stock solutions were diluted in fresh medium and the final DMSO concentration in the assay was 0.25% (v/v). All drugs and investigational agents were tested over a range starting from a high concentration at or near the clinical Cmax and decreasing in half-log increments. If the clinical Cmax for an agent had not been determined, the highest concentration tested was 10 microM.
Cell Lines. The patient-derived cancer cell (PDC) lines: 156681-154-R-J1-PDC, 283228-195-R-J1-PDC, 287954-098-R-J1-PDC, 292921-168-R-J2-PDC, 349418-098-R-PDC, 425362-245-T-J1-PDC, 556581-035-R-J1-PDC, and BL0293-F563-PDC were received from the NCI Patient-Derived Models Repository (PDMR, https://pdmr.cancer.gov). The established cell lines HS-SY-2 (RRID:CVCL_8719), MPNST, and SYO-1 (RRID:CVCL_7146) were obtained from the Sloan Kettering Institute. The alveolar soft parts sarcoma cell line ASPS-1 (RRID:CVCL_S738) was established at the NCI and grown from internal seed stocks. The following established cell lines were purchased from the American Type Culture Collection (ATCC, Manassas, VA): G-401 (ATCC, cat. CRL-1441, RRID:CVCL_0270), SW982 (ATCC, cat. HTB-93, RRID:CVCL_1734), VA-ES-BJ (ATCC, cat. CRL-2138, RRID:CVCL_1785), NCI-H719 (ATCC, cat. CRL-5837, RRID:CVCL_1582), NCI-H196 (ATCC, cat. CRL-5823, RRID:CVCL_1509), NCI-H841 (ATCC, cat. CRL-5845, RRID:CVCL_1595), NCI-H1618 (ATCC, cat. CRL-5879, RRID:CVCL_1480), NCI-H1876 (ATCC, cat. CRL-5902, RRID:CVCL_1503), DMS 114 (ATCC, cat. CRL-2066; RRID:CVCL_1174), NCI-H211 (ATCC, cat. CRL-5824; RRID:CVCL_1529), and SW 1271 (ATCC, cat. CRL-2177, RRID:CVCL_1716). The small cell lung cancer cell line COR-L88 was purchased from Sigma-Aldrich (cat. 92031917-1VL, RRID:CVCL_1141). The non-small cell lung cancer cell lines NCI-H226 (RRID:CVCL_1544) and NCI-H322M (RRID:CVCL_1557) were established at the NCI and grown from internal seed stocks. Pooled donor human umbilical vein endothelial cells (HUVEC, Lonza, cat. CC-2519) and human mesenchymal stem cells (hMSC, Lonza, cat. PT-2501) were purchased from Lonza (Walkersville, MD).
Cell Culture. All cells were maintained in an incubator at 37 degrees C and 5% CO2 with 95% humidity. […]

Cc1sc2c(c1C)C(c1ccc(Cl)cc1)=NC(CC(=O)Nc1ccc(O)cc1)c1nnc(C)n1-2 (stereo not given) + CC[C@@]1(O)C(=O)OCc2c1cc1n(c2=O)Cc2cc3c(CN(C)C)c(O)ccc3nc2-1
IC50 (second compound 0.003 µM): 0.453 µM
IC50 (second compound 0.00949 µM): 0.011 µM
IC50 (second compound 0.03 µM): < 0.00949 µM
IC50 (second compound 0.0949 µM): < 0.00949 µM
IC50 (second compound 0.3 µM): < 0.00949 µM
viability, T/C (second compound 0.003 µM, first compound 0.00949 µM): 96.6%
viability, T/C (second compound 0.003 µM, first compound 0.03 µM): 85.2%
viability, T/C (second compound 0.003 µM, first compound 0.0949 µM): 89.1%
viability, T/C (second compound 0.003 µM, first compound 0.3 µM): 61.3%
viability, T/C (second compound 0.003 µM, first compound 0.949 µM): 27.2%
viability, T/C (second compound 0.003 µM, first compound 3 µM): 1.67%
viability, T/C (second compound 0.00949 µM, first compound 0.00949 µM): 55.5%
viability, T/C (second compound 0.00949 µM, first compound 0.03 µM): 21.2%
viability, T/C (second compound 0.00949 µM, first compound 0.0949 µM): 29.5%
viability, T/C (second compound 0.00949 µM, first compound 0.3 µM): 2.24%
viability, T/C (second compound 0.00949 µM, first compound 0.949 µM): 0.92%
viability, T/C (second compound 0.00949 µM, first compound 3 µM): 0.93%
viability, T/C (second compound 0.03 µM, first compound 0.00949 µM): 1.53%
viability, T/C (second compound 0.03 µM, first compound 0.03 µM): 17%
viability, T/C (second compound 0.03 µM, first compound 0.0949 µM): 1.42%
viability, T/C (second compound 0.03 µM, first compound 0.3 µM): 1.1%
viability, T/C (second compound 0.03 µM, first compound 0.949 µM): 0.9%
viability, T/C (second compound 0.03 µM, first compound 3 µM): 0.76%
viability, T/C (second compound 0.0949 µM, first compound 0.00949 µM): 1.43%
viability, T/C (second compound 0.0949 µM, first compound 0.03 µM): 1.5%
viability, T/C (second compound 0.0949 µM, first compound 0.0949 µM): 1.55%
viability, T/C (second compound 0.0949 µM, first compound 0.3 µM): 0.99%
viability, T/C (second compound 0.0949 µM, first compound 0.949 µM): 0.71%
viability, T/C (second compound 0.0949 µM, first compound 3 µM): 15.8%
viability, T/C (second compound 0.3 µM, first compound 0.00949 µM): 1.23%
viability, T/C (second compound 0.3 µM, first compound 0.03 µM): 1.1%
viability, T/C (second compound 0.3 µM, first compound 0.0949 µM): 0.98%
viability, T/C (second compound 0.3 µM, first compound 0.3 µM): 0.97%
viability, T/C (second compound 0.3 µM, first compound 0.949 µM): 0.73%
viability, T/C (second compound 0.3 µM, first compound 3 µM): 0.63%
